Data on 1 compound can be found in patent US20260232660A1 (TARIS Biomedical LLC, priority 2023, published 2026).

For data set [1], the system named is orthotopic UM-UC-1 bladder tumors. Briefly: Continuous bladder perfusion, orthotopic UM-UC-1 bladder cancer model. The format is in vivo. The following applies: 5 days perfusion; p<0.01 at 0.5, p<0.001 at 1.0 and 5 μg/mL nominal urine concentrations. The method, then: Perfusion studies: The bladders of the study animals were cannulated on Day 1 and the animals were allowed to recover for 3 days. On Day 5, UM-UC-1 cells (2×10^6 cells) were injected into the lateral wall of each bladder. […] Based on the in vitro results, target urine concentrations of 0.5, 1.0, and 5.0 μg/mL were used in the perfusion experiments. Body weight, daily urine production, and daily water consumption were recorded. At necropsy, a plasma sample, bladder photographs, and bladder weight measurements were recorded.
The percent reduction in relative tumor weight between the control group and the drug perfusion groups was determined as an initial measure of efficacy.

For data set [2] the following is noted: rat, in vivo. From the text:
Rat bladders (5 groups of rats, n=3/group) were surgically catheterized under anesthesia and the catheter was externalized, tunneled subcutaneously, and connected to a vascular access harness (VAH) in the neck. Rats were transferred to individual metabolic cages with free access to food and water during the 1-week post-surgery recovery period. […] Plasma and bladder samples were collected at all time points.

The subject of data set [3] is orthotopic RT-112 bladder tumor.
The conditions of data set [4]: first 6 hours.
Method: Solution formulations were prepared at various strengths in order to administer 0.5 mL volume to each rat bladder to dose 2, 6, and 18 mg/kg. Corresponding doses in nominal amount of drug were 0.5, 1.5, and 4.5 mg, respectively. After 1 hour of post-installation, rats were transferred to metabolic cages for collection of samples for PK determination. […] At each blood sampling time point, bladder samples were taken from each rat for drug analysis. In addition, bladders collected at 96 hours in the 18 mg/kg dose (high-dose) group were microscopically evaluated. Urine collections were limited to initial 0-6 hours post dose from all rats.
The next data set in a line: in vivo. The following applies: female, Domestic Yorkshire Crossbred, pig, urine, other: continuous intravesical infusion, 0.22 mg/kg/day.

Where two headings read alike, the source gives them in different places. Marks after values point to notes of the source that are not given here.

From the text for in vivo: On Day ~7 a catheter was surgically placed in the bladder of each animal. The distal end of the catheter was anchored to a subcutaneous site and attached to a vascular access port (VAP). The port was secured, and the animals were allowed to recover. Each animal was subsequently fitted with a portable infusion pump that was attached to the bladder catheter via the VAP. […] All excreted urine was collected in 24-hour intervals through Day 6 or 8. Blood samples were collected daily on study Days 1 to 8. Bladder tissue samples were collected from each animal at necropsy.

As for `COc1cc(OC)cc(N(CCNC(C)C)c2ccc3ncc(-c4cnn(C)c4)nc3c2)c1` [erdafitinib, N-(3,5-dimethoxyphenyl)-N′-(1-methylethyl)-N-[3-(1-methyl-1H-pyrazol-4-yl)quinoxalin-6-yl]ethane-1,2-diamine], in data set [1], the “Bladder weight (tumor growth) vs vehicle control” value is “significant dose-related decrease in bladder weight”. Moreover, the C72 h in data set [2] (female, Sprague-Dawley, 72 h) is 2,420^a ng/mL. In addition, in data set [2], the C96 h result is “BQL”. Besides, the C120 h entry in data set [2] was “BQL”. In addition, in data set [3] (1.0 μg/mL perfusate concentration, p<0.05), the “Bladder weight decrease vs vehicle control” value was “significant bladder weight reduction”. For the same compound, the “Body weight loss, maximum mean value” in data set [3] (erdafitinib-treated group, Day 11) is “up to −3%”. Moreover, the “Percentage of compound eliminated as unchanged drug in the urine” value in data set [4] (2 mg/kg intravesical) was 23.5%; in data set [4] (6 mg/kg intravesical) it was 19%; in data set [4] (18 mg/kg intravesical), 50.3%. The same compound yielded a concentration at 8 day in “in vivo” of 1270 ng/mL.
